One test deals with T1, PTPN2 (B16F10.4 cells) (Mus musculus, UniProt Q06180).
T1 construct: HiBiT; host or cells: B16F10.4
T1 sequence (Q06180 1-406): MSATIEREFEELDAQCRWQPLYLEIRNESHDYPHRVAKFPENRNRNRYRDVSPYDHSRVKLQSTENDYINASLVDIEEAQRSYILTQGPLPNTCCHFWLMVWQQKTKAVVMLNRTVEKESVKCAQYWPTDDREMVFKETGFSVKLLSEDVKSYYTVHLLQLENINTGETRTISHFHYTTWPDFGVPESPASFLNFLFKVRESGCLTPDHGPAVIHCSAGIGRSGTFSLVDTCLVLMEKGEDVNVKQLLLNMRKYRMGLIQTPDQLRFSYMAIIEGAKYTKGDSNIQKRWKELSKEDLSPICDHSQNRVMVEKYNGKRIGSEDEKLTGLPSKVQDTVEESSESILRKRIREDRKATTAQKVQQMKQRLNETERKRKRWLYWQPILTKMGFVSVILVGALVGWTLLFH
The test is described as follows: HiBiT Degradation B16F10.4 PTPN2. It is filed as cell-based. Particulars: 24.0 hours.

In test [1] the target is T2, PTPN2 (HiBIT-PTPN2 in 293T.109 cells) (Homo sapiens, UniProt P17706).
T2 construct: expressed in transfected cells; host or cells: 293T.109 (293T WT from ATCC)
T2 sequence (P17706 1-415): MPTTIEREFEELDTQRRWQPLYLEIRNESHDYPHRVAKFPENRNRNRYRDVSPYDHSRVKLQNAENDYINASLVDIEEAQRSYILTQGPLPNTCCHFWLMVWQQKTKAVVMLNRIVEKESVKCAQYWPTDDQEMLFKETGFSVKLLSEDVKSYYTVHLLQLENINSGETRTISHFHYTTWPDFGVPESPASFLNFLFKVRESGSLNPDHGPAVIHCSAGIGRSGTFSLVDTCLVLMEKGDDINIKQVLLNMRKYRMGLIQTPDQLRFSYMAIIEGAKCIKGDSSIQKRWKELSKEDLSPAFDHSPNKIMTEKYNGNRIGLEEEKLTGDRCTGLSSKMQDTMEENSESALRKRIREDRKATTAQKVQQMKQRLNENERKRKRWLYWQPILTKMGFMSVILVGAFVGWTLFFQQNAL
Description: HiBiT Degradation 293T.109 PTPN2 (Nano-Glo HiBiT Lytic Assay). It is filed as cell-based. The settings on record: 24.0 hours. An outline of the steps:
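293T.109 cells with ectopic N-terminal HiBiT-tagged PTPN2 (5000/well) exposed to compounds for 24 h at 37 °C, 5% CO2; 11-point half-log titration from 10 μM top, duplicates. Remaining HiBiT-PTPN2 read as luminescence with Nano-Glo HiBiT lytic reagent, normalised to untreated cells (0%) and reagent-free wells.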

The structures appear in SMILES notation.

Consider `O=C(O)COc1c(C(=O)O)sc(-c2cccc(NC3CCN(S(=O)(=O)Cc4cccc(NC(=O)CNc5ccc6c(c5)C(=O)N(C5CCC(=O)NC5=O)C6=O)c4)CC3)c2)c1Cl` (stereo not shown) [Example 23, 3-(carboxymethoxy)-4-chloro-5-[3-[[1-[[3-[[2-[[2-(2,6-dioxo-3-piperidyl)-1,3-dioxo-isoindolin-5-yl]amino]acetyl]amino]phenyl]methylsulfonyl]-4-piperidyl]amino]phenyl]thiophene-2-carboxylic acid], for which the 50% degradation concentration (DC50) (on PTPN2 (B16F10.4 cells); in test [1]) was 200 to 1000 nM each time.
As for `CC1(C)C[C@@H](Nc2cccc(-c3sc(C(=O)O)c(OCC(=O)O)c3Cl)c2)CCN1S(=O)(=O)Cc1cccc(NC(=O)N2CCC[C@@H](c3ccc4c5c(cccc35)N(C3CCC(=O)NC3=O)C4=O)CC2)c1` (stereo partly drawn) [Example 224, 3-(carboxymethoxy)-4-chloro-5-(3-(((4S)-1-((3-((4R)-4-(1-(2,6-dioxopiperidin-3-yl)-2-oxo-1,2-dihydrobenzo[cd]indol-5-yl)azepane-1-carboxamido)benzyl)sulfonyl)-2,2-dimethylpiperidin-4-yl)amino)phenyl)thiophene-2-carboxylic acid], the DC50 (on PTPN2 (B16F10.4 cells); in test [1]) was 50 to 200 nM each time.
As to `Cn1c(=O)n(C2CCC(=O)NC2=O)c2ccc(CC3CCN(C(=O)Nc4cccc(CS(=O)(=O)N5CC[C@H](Nc6cccc(-c7sc(C(=O)O)c(OCC(=O)O)c7Cl)c6)CC5(C)C)c4)CC3)cc21` (stereo partly drawn) [Example 175, 3-(carboxymethoxy)-4-chloro-5-[3-[[(4S)-1-[[3-[[4-[[1-(2,6-dioxo-3-piperidyl)-3-methyl-2-oxo-benzimidazol-5-yl]methyl]piperidine-1-carbonyl]amino]phenyl]methylsulfonyl]-2,2-dimethyl-4-piperidyl]amino]phenyl]thiophene-2-carboxylic acid], the half-maximal degradation concentration (DC50) is under 50 nM at PTPN2 (B16F10.4 cells) and 50 to 200 nM in test [1].
In the same order, the values of `Cn1c(=O)n(C2CCC(=O)NC2=O)c2ccc(N3CCC(CCNCCNc4cccc(CS(=O)(=O)N5CC[C@H](Nc6cccc(-c7sc(C(=O)O)c(OCC(=O)O)c7Cl)c6)CC5(C)C)c4)CC3)cc21` (stereo partly drawn) [Example 237, 3-(carboxymethoxy)-4-chloro-5-[3-[[(4S)-1-[[3-[2-[2-[1-[1-(2,6-dioxo-3-piperidyl)-3-methyl-2-oxo-benzimidazol-5-yl]-4-piperidyl]ethylamino]ethylamino]phenyl]methylsulfonyl]-2,2-dimethyl-4-piperidyl]amino]phenyl]thiophene-2-carboxylic acid] are 50 to 200 nM and under 50 nM.
The matching figures for `CC1(C)C[C@@H](Nc2cccc(-c3sc(C(=O)O)c(OCC(=O)O)c3Cl)c2)CCN1S(=O)(=O)Cc1cccc(NC(=O)N2CCC(c3ccc4c(c3)oc(=O)n4C3CCC(=O)NC3=O)CC2)c1` (stereo partly drawn) [Example 68, 3-(carboxymethoxy)-4-chloro-5-[3-[[(4S)-1-[[3-[[4-[3-(2,6-dioxo-3-piperidyl)-2-oxo-1,3-benzoxazol-6-yl]piperidine-1-carbonyl]amino]phenyl]methylsulfonyl]-2,2-dimethyl-4-piperidyl]amino]phenyl]thiophene-2-carboxylic acid]: 50 to 200 nM and 50 to 200 nM.
For `CC1(C)C[C@@H](Nc2cccc(-c3sc(C(=O)O)c(OCC(=O)O)c3Cl)c2)CCN1S(=O)(=O)Cc1cccc(NC(=O)N2CCC(c3ccc4c(c3)CCN4C3CCC(=O)NC3=O)CC2)c1` (stereo partly drawn) [Example 94, 3-(carboxymethoxy)-4-chloro-5-[3-[[(4S)-1-[[3-[[4-[1-(2,6-dioxo-3-piperidyl)indolin-5-yl]piperidine-1-carbonyl]amino]phenyl]methylsulfonyl]-2,2-dimethyl-4-piperidyl]amino]phenyl]thiophene-2-carboxylic acid], the DC50 (on PTPN2 (B16F10.4 cells); in test [1]) was 200 to 1000 nM each time.
Regarding `O=C(O)COc1c(C(=O)O)sc(-c2cccc(NC3CCN(S(=O)(=O)Cc4cccc(NC(=O)CN5CCC(n6nc(C7CCC(=O)NC7=O)c7ccccc76)CC5)c4)CC3)c2)c1Cl` (stereo not shown) [Example 54], the DC50 (on PTPN2 (B16F10.4 cells); in test [1]) was at least 1000 nM in each case.
Consider `Cn1c(=O)n(C2CCC(=O)NC2=O)c2ccc(C3CCN(C(=O)Nc4cccc(CS(=O)(=O)N5CC[C@@H](Nc6cccc(-c7sc(C(=O)O)c(OCC(=O)O)c7Cl)c6)CC5(C)C)c4F)CC3)cc21` (stereo partly shown) [Example 131], for which the DC50 at PTPN2 (B16F10.4 cells) fell in the range of 50 to 200 nM; in test [1] it was 200 to 1000 nM.
The matching figures for `CC1(C)C[C@@H](Nc2cccc(-c3sc(C(=O)O)c(OCC(=O)O)c3Cl)c2)CCN1S(=O)(=O)Cc1cccc(N2CCN(C3CCN(c4ccc5c6c(cccc46)C(=O)N5C4CCC(=O)NC4=O)CC3)C2=O)c1` (stereo partly drawn) [Example 189, 3-(carboxymethoxy)-4-chloro-5-(3-(((4S)-1-((3-(3-(1-(1-(2,6-dioxopiperidin-3-yl)-2-oxo-1,2-dihydrobenzo[cd]indol-6-yl)piperidin-4-yl)-2-oxoimidazolidin-1-yl)benzyl)sulfonyl)-2,2-dimethylpiperidin-4-yl)amino)phenyl)thiophene-2-carboxylic acid]: under 50 nM and under 50 nM.
The matching figures for `Cn1c(=O)n(C2CCC(=O)NC2=O)c2ccc(C3CCN(C(=O)Nc4cccc(CS(=O)(=O)N5CC[C@H](Oc6cccc(-c7sc(C(=O)O)c(OCC(=O)O)c7Cl)c6)CC5(C)C)c4)CC3)cc21` (stereo partly drawn) [Example 225, 3-(carboxymethoxy)-4-chloro-5-(3-(((4S)-1-((3-(4-(1-(2,6-dioxopiperidin-3-yl)-3-methyl-2-oxo-2,3-dihydro-1H-benzo[d]imidazol-5-yl)piperidine-1-carboxamido)benzyl)sulfonyl)-2,2-dimethylpiperidin-4-yl)oxy)phenyl)thiophene-2-carboxylic acid]: 50 to 200 nM and 200 to 1000 nM.
The matching figures for `CC1(C)C[C@H](Nc2cccc(-c3sc(C(=O)O)c(OCC(=O)O)c3Cl)c2F)CCN1S(=O)(=O)Cc1ccc(F)c(NC(=O)C2CN(C(=O)CNc3cccc4c3CN(C3CCC(=O)NC3=O)C4=O)C2)c1` (stereo partly shown) [Example 149]: at least 1000 nM and 50 to 200 nM.
Take `Cn1c(=O)n(C2CCC(=O)NC2=O)c2ccc(N3CC(OC(=O)Nc4cccc(CS(=O)(=O)N5CC[C@H](Nc6cccc(-c7sc(C(=O)O)c(OCC(=O)O)c7Cl)c6)CC5(C)C)c4)C3)cc21` (stereo partly shown) [Example 136]: the DC50 was at least 1000 nM at PTPN2 (B16F10.4 cells) and 200 to 1000 nM in test [1].
With `Cn1c(=O)n(C2CCC(=O)NC2=O)c2ccc(C3CCN(C(=O)Nc4cccc(CS(=O)(=O)N5CCC(Oc6cccc(-c7sc(C(=O)O)c(OCC(=O)O)c7Cl)c6)CC5)c4)CC3)cc21` (stereo not shown) [Example 103, 3-(Carboxymethoxy)-4-chloro-5-[3-[[1-[[3-[[4-[1-(2,6-dioxo-3-piperidyl)-3-methyl-2-oxo-benzimidazol-S-yl]piperidine-1-carbonyl]amino]phenyl]methylsulfonyl]-4-piperidyl]oxy]phenyl]thiophene-2-carboxylic acid], the DC50 fell in the range of 50 to 200 nM on PTPN2 (B16F10.4 cells) and 200 to 1000 nM in test [1].
In the same order, the values of `CC(C)n1c(=O)n([C@@H]2CCC(=O)NC2=O)c2ccc(C3CCN(C(=O)Nc4cccc(CS(=O)(=O)N5CC[C@H](Nc6cccc(-c7sc(C(=O)O)c(OCC(=O)O)c7Cl)c6)CC5(C)C)c4)CC3)cc21` (single isomer, unassigned) [Example 87a] are 50 to 200 nM and 50 to 200 nM.
